In article PMC3689833, “Neurochemical Changes in the Mouse Hippocampus Underlying the Antidepressant Effect of Genetic Deletion of P2X7 Receptors” (PLoS ONE, 2013):

Tests used:
acute hippocampal slices = experiment: [3H]Glutamate and endogenous glutamate release from acute hippocampal slices; format: cell-based, mouse
Method: The [^3H]Glu release experiments were conducted using the method described in our previous papers. Briefly, the mice were anaesthetized under light CO2 inhalation, and subsequently decapitated. The hippocampus was dissected from each mouse in ice-cold Krebs solution saturated with 95% O2 and 5% CO2, sectioned (400-µm-thick slices) using a McIlwain tissue chopper and incubated in 1 ml of modified Krebs solution (113 mM NaCl, 4.7 mM KCl, 2.5 mM CaCl2, 1.2 mM KH2PO4, 1.2 mM MgSO4, 25.0 mM NaHCO3, and 11.5 mM glucose), pH 7.4, in the presence of 5 µCi/ml [^3H]glutamic acid ([^3H]Glu, 9.8×10^−8 M, specific activity 51 Ci/mmol; Perkin Elmer) for 45 min. The medium was bubbled with 95% O2 and 5% CO2 and maintained at 32°C. After loading, the slices were continuously superfused with 95% O2 and 5% CO2-saturated modified Krebs solution (flow rate: 0.7 ml/min).
Subsequently, the perfused samples were collected over a 3-min period and measured for tritium content. At 6 min after the start of the collection, the slices were subjected to a 6-min perfusion of the agonist (ATP) at various concentrations (1, 3, 6 and 10 mM) and then changed to normal Krebs solution until the end of the collection period. In some experiments, the P2X1 receptor antagonist, NF449 (100 nM), or the selective P2rx7 antagonist Brilliant blue G (100 nM) was applied to the perfusion solution at 15 min before the beginning of the ATP perfusion.
The radioactivity released from the preparations was measured using a Packard 1900 Tricarb liquid scintillation spectrometer, using Ultima Gold Scintillation cocktail. The release of tritium was expressed as a percentage of the amount of radioactivity in the tissue at the sample collection time (fractional release). The tritium uptake in the tissue was determined as the sum of release+the tissue content after the experiment and expressed in Bq/g. For the evaluation of the basal tritium outflow the fractional release measured in four consecutive 3 min samples under drug free conditions were taken into account. The ATP-induced [^3H]Glu efflux calculated as the net release in response to the respective stimulus by subtracting the release before the stimulation from the values measured after stimulation. Selected samples collected under resting conditions and during the peak of the ATP-evoked response were subjected to further HPLC analyses.
The separation of pre-column dansylated amino acids was performed using a gradient elution-working mode at ambient temperature. The mobile phase A consisted of 5/95 (v/v) 78/22 acetonitrile/methanol in 15 mM ammonium formate buffer, and the mobile phase B was composed of 90/10 (v/v 78/22) acetonitrile/methanol in ammonium formate buffer, pH 3.7. The mobile phase B increased linearly (at 0.11 min to 50% 17 min to 72% and 26 min to 100%, followed by a final run to 54 min), the flow rate was 0.7 ml/min. The analytical and the trap column were equilibrated for 10 min, and enrichment and clean-up procedures were performed. The dansylated derivatives were detected using an absorbance detector (Agilent 1100) at a 319 nm wavelength. The retention time of the dansylated Glu was 11.4 min. Pre-column derivatization was performed by mixing 50 µl of dansyl chloride prepared by dissolving 5 mg 5-(dimethylamino)naphthalene-1-sulfonyl chloride in acetonitrile daily and adding 50 µl of 2 M sodium carbonate, which contained norvaline (20 µM) as an internal standard in 25 µl of sample. After a 10-min reaction time at 60°C, the mixture was acidified using 25 µl of 6 M formic acid and injected onto the “trap-column”.

[1] = test system: P2rx7+/+ and P2rx7−/− mice; experiment: Sucrose preference test (SPT), LPS-induced anhedonia; format: in vivo, mouse; settings: for inhibitory effect on LPS-induced anhedonia in P2rx7−/− mice: acute treatment; for effect on LPS-induced anhedonia in P2rx7−/− mice: subacute 4-day treatment, compared with P2rx7+/+
Method: The experiments were performed using the two-bottle sucrose preference paradigm. The decreased preference for sucrose vs. water in this test has been proposed to reflect impaired sensitivity towards reward and to model anhedonia. Mice were offered a choice of 2% sucrose solution or water during 12-hour nocturnal periods (starting at 19∶00). The bottles were weighed before and after each test session to monitor sucrose and water consumption. The relative position of the sucrose and water bottles were swapped every night to avoid place preferences. The baseline sucrose intake was measured under a habituation period of 3–4 days before administering the treatments, and the mean volume ingested over the last 3 training sessions was used as a baseline value. The sucrose consumption was measured for 4 consecutive nights after LPS (0.2 mg/kg i.p.) or saline administration and expressed as g/100 g body weight or as a percentage of the baseline (%).

[2] = test system: BDNF level in hippocampal slices; experiment: BDNF protein assay (ELISA), in vitro study in hippocampal slices; format: cell-based, mouse; settings: for effect on the inhibitory effect of BzATP on BDNF level / effect on basal BDNF level, compound alone (no BzATP): CNQX 10 µM, TCN-201 10 µM; for effect on the inhibitory effect of BzATP on BDNF level / effect on basal BDNF level, compound alone (no BzATP) / BDNF level in hippocampal slices in the presence of BzATP: RO-256981 3 µM, MCPG 200 µM; for BDNF level in hippocampal slices in the presence of BzATP: + BzATP 100 µM, BBG 100 nM, DHPG 100 µM; for BDNF level in hippocampal slices, compound alone: RO-256981 3 µM 15 min, DHPG 100 µM 10 min
Method: The P2rx7 wild type and knockout mice were anesthetized under light CO2 inhalation and decapitated. The hippocampus was dissected in ice-cold Krebs solution saturated with 95% O2 and 5% CO2, sectioned (400 µm thick slices) using a McIlwain tissue chopper and incubated in 2 ml of modified Krebs solution in the presence of 1 ml Hibernate medium, ascorbic acid (300 µM) and Na2EDTA (30 µM) for 60 min. The medium was bubbled continuously with 95% O2 and 5% CO2 and maintained at 37°C. The P2rx7 agonist, BzATP, was added to the incubation solution for 30 min, whereas BBG was applied 15 min before BzATP application. RO-256981, 6-cyano-7-nitroquinoxaline-2,3-dione (CNQX) and 3-Chloro-4-fluoro-N-[4[[2(phenylcarbonyl)hydrazino]carbonyl]benzyl] benzenesulfonamide (TCN-201) were applied for 15 min, while MCPG was administered for 30 min. The group I metabotropic glutamate receptor agonist, dihydroxyphenylglycine (DHPG), was administered for 10 min. The DHPG, MCPG, and RO-256981 dosages were chosen based on previous studies, [47], [48]. In the experiments with BzATP, Mg^2+ was omitted from the incubation solution. The hippocampal slices were collected, frozen on dry ice and stored at −70°C until further investigation. Each experimental group contained 3–4 mice.
At the time of analysis, the samples were removed from the freezer and weighed. The BDNF extraction procedure was performed in accordance with the methods of a previous study. For the BDNF assays, 2 ml lysis buffer (100 mM PIPES, pH 7, 500 mM NaCl, 0.2% Triton X-100, 0.1% NaN3, 2% BSA, 2 mM EDTA, 200 µM PMSF, 10 µg/mL aprotinin, 1 µg/mL leupeptin, and 0.5 mM sodium vanadate) was added to each sample, and the hippocampus was sonicated at power level 2 using pulses at 1 sec intervals for 10–15 sec. Subsequently, the samples were centrifuged at 16,000 × g for 30 min at 4°C. 100 µl aliquots of the resulting supernatants were removed and diluted with 400 µl of DPBS buffer (137 mM NaCl, 2.68 mM KCl, 1.47 mM KH2PO4, 8.1 mM Na2HPO4 (pH 7.35), 0.9 mM CaCl2·H2O, and 0.5 mM MgCl2·H2O). The supernatants were collected and stored at −70?C until further analysis. For the total free BDNF measurement, the samples were acid treated with 1 µl of 1 N HCl for each 50 µl of diluted samples to decrease the pH to 2.5, followed by incubation at room temperature for 15 min. The samples were neutralized with 1 µl of 1 N NaOH for each 50 µl of diluted samples. The levels of BDNF (both precursor and mature forms) expression were evaluated using an enzyme-linked immunosorbent assay (ELISA) kit and a BDNF Emax ImmunoAssay System (Promega Corporation, Madison, WI, USA), which is specific for mouse BDNF protein, according to the manufacturer’s instructions. The BDNF levels were calculated by plotting the optical density (OD) of each sample against the standard curve. A seven-point standard curve using two-fold serial dilutions in Reagent Diluent (according the manufacturer’s instructions) and a high standard of 500 pg/ml were used for the determination of BDNF levels. The assay detection limits were <15 pg/ml. Absorbance was measured at 450 nm using a Perkin-Elmer Victor 3V 1420 Multilabel Counter.

[3] = P2rx7+/+ slices, BzATP 100 µM 30 min, Mg2+-free

Structure (SMILES): Nc1ncnc2c1ncn2[C@@H]1O[C@H](COP(=O)(O)OP(=O)(O)OP(=O)(O)O)[C@@H](O)[C@H]1O [ATP]
- net release of tritium ([3H]Glu, fractional release) (acute hippocampal slices; P2rx7+/+ slices, 10 mM ATP, 6-min perfusion): 3.34±0.57%
- endogenous glutamate level in effluent (HPLC) (acute hippocampal slices; P2rx7+/+ slices, 10 mM ATP, peak vs resting): remarkable elevation
- efflux of [3H]Glu (acute hippocampal slices; P2rx7+/+ slices, 6-min perfusion, 1–10 mM): concentration-dependent increase
- net [3H]Glu efflux (fractional release) (acute hippocampal slices; P2rx7−/− slices, 10 mM ATP): 0.25±0.43%

Structure (SMILES): O=C(CC12CC3CC(CC(C3)C1)C2)Nc1cccc2nc(NCCNCCO)ccc12 [AZ-10606120]
- amount of sucrose consumed on the 3rd day after LPS injection ([1]; P2rx7+/+ mice, acute injection 2 mg/kg i.p. 30 min before LPS, vs control): significantly higher
- amount of sucrose consumed on the day after LPS injection ([1]; P2rx7+/+ mice, subacute treatment 2 mg/kg i.p., vs control): significantly higher
- inhibitory effect on LPS-induced anhedonia in P2rx7−/− mice [1]: completely absent
- effect on LPS-induced anhedonia in P2rx7−/− mice [1]: significantly attenuated

Structure (SMILES): Nc1ncnc2c1ncn2[C@@H]1O[C@H](COP(=O)(O)OP(=O)(O)OP(=O)(O)O)[C@@H](OC(=O)c2ccc(C(=O)c3ccccc3)cc2)[C@H]1O [BzATP, 3′-O-(4-benzoyl-benzoyl)adenosine 5′-triphosphate]
- BDNF level in hippocampal slices [2, 3]: 13.85 ± 0.98 pg/mL
- decrease of basal BDNF level [2, 3]: 25.73%
- effect on BDNF level ([2]; P2rx7−/− slices, BzATP 100 µM, Mg2+-free): without significantly affecting

Structure (SMILES): N#Cc1cc2[nH]c(=O)c(=O)[nH]c2cc1[N+](=O)[O-] [CNQX, 6-cyano-7-nitroquinoxaline-2,3-dione]
- effect on the inhibitory effect of BzATP on BDNF level ([2]; P2rx7+/+ slices, BzATP 100 µM): occluded
- effect on basal BDNF level, compound alone (no BzATP) ([2]; P2rx7+/+ slices): decreased

Structure (SMILES): NC(C(=O)O)c1cc(O)cc(O)c1 (stereo not shown) [DHPG, 3,5-dihydroxyphenylglycine]
- BDNF level in hippocampal slices in the presence of BzATP ([2]; P2rx7+/+ slices, Mg2+-free): 54.14 ± 1.92 pg/mL
- BDNF level in hippocampal slices, compound alone ([2]; P2rx7+/+ slices): 41.59 ± 0.40 pg/mL

Structure (SMILES): CC(N)(C(=O)O)c1ccc(C(=O)O)cc1 (stereo not drawn) [MCPG, α-Methyl-4-carboxyphenylglycine]
- BDNF level in hippocampal slices in the presence of BzATP ([2]; P2rx7+/+ slices, Mg2+-free): 6.09 ± 1.17 pg/mL
- decrease of BDNF level in the presence of BzATP ([2]; P2rx7+/+ slices, BzATP 100 µM + MCPG 200 µM): 67.34%
- effect on the inhibitory effect of BzATP on BDNF level ([2]; P2rx7+/+ slices, BzATP 100 µM): did not antagonize
- effect on basal BDNF level, compound alone (no BzATP) ([2]; P2rx7+/+ slices): significantly diminished

Structure (SMILES): O=C(Nc1cc(C(=O)Nc2ccc(S(=O)(=O)[O-])cc2S(=O)(=O)[O-])cc(C(=O)Nc2ccc(S(=O)(=O)[O-])cc2S(=O)(=O)[O-])c1)Nc1cc(C(=O)Nc2ccc(S(=O)(=O)[O-])cc2S(=O)(=O)[O-])cc(C(=O)Nc2ccc(S(=O)(=O)[O-])cc2S(=O)(=O)[O-])c1.[Na+].[Na+].[Na+].[Na+].[Na+].[Na+].[Na+].[Na+] [NF449, 4,4′,4′′,4′′′-[Carbonylbis(imino-5,1,3-benzenetriyl-bis(carbonylimino))]tetrakis-1,3-benzenedisulfonic acid, octasodium salt]
- residual ATP-evoked [3H]Glu efflux in presence of antagonist (acute hippocampal slices; P2rx7−/− slices, ATP 10 mM, antagonist 100 nM 15 min before ATP): sensitive to inhibition

Structure (SMILES): C[C@@H](CN1CCC(Cc2ccccc2)CC1)[C@@H](O)c1ccc(O)cc1.O=C(O)/C=C\C(=O)O [RO-256981, (αR,βS)-α-(4-Hydroxyphenyl)-β-methyl-4-(phenylmethyl)-1-piperidinepropanol maleate]
- BDNF level in hippocampal slices in the presence of BzATP ([2]; P2rx7+/+ slices, Mg2+-free): 15.75 ± 0.44 pg/mL
- effect on the inhibitory effect of BzATP on BDNF level ([2]; P2rx7+/+ slices, BzATP 100 µM): occluded
- effect on basal BDNF level, compound alone (no BzATP) ([2]; P2rx7+/+ slices): decreased
- BDNF level in hippocampal slices, compound alone ([2]; P2rx7+/+ slices): 15.20 ± 0.12 pg/mL

Structure (SMILES): O=C(NNC(=O)c1ccc(CNS(=O)(=O)c2ccc(F)c(Cl)c2)cc1)c1ccccc1 [TCN-201, 3-Chloro-4-fluoro-N-[4[[2(phenylcarbonyl)hydrazino]carbonyl]benzyl] benzenesulfonamide]
- effect on the inhibitory effect of BzATP on BDNF level ([2]; P2rx7+/+ slices, BzATP 100 µM): occluded
- effect on basal BDNF level, compound alone (no BzATP) ([2]; P2rx7+/+ slices): unaffected

Structure (SMILES): CN(C)CCCC1(c2ccc(F)cc2)OCc2cc(C#N)ccc21 (stereo not shown) [citalopram]
- inhibitory effect on LPS-induced anhedonia in P2rx7−/− mice [1]: largely preserved
- effect on LPS-induced anhedonia in P2rx7−/− mice [1]: largely preserved
